According to ChEMBL document CHEMBL1127402, “Orally active non-peptide fibrinogen receptor (GpIIb/IIIa) antagonists: identification of 4-[4-[4-(aminoiminomethyl)phenyl]-1-piperazinyl]-1-piperidineacetic acid as a long-acting, broad-spectrum antithrombotic agent” (J Med Chem, 1994):

Organism: Homo sapiens
Experiment: Inhibition of 10 uM ADP induced aggregation in human gel filtered platelets in the presence fibrinogen and aspirin.
Assay type: functional

| IC50 [nM] | Structure (SMILES) |
| --- | --- |
| 31 | N=C(N)c1ccc(-c2ccc(N3CC[N+](CC(=O)O)(Cc4ccccc4)CC3)cc2)cc1 |
| 54000 | CCN(CC)CCO[C@H]1CC[C@H]([C@H]2CC[C@](O)(CC(=O)O)CC2)CC1 |
| 37 | N=C(N)c1ccc(N2CCN(C3CCN(CC(=O)O)CC3)CC2)cc1 |
| 210 | N/C(=N\CC(F)(F)F)c1ccc(-c2ccc(C3=CCC(O)(CC(=O)O)CC3)cc2)cc1 (centres undefined) |
